The target in test [1] is Sigma non-opioid intracellular receptor 1 (Mus musculus, UniProt O55242). The test is described as follows: Displacement of [3H]-(+)-pentazocin from sigma1 receptor in mouse brain P2 membranes after 240 mins by liquid scintillation counting method. It is filed as cell membranes.
Test [2] deals with Mu-type opioid receptor (Cavia porcellus, UniProt P97266). As to the kind of experiment: Displacement of [3H]-[D-Ala2,MePhe4Gly-ol5]enkephalin from mu opioid receptor in guinea pig brain membranes after 40 mins. The format is cell membranes, Membrane.
A short description of test [3]: Displacement of [3H]-[D-Ala2,D-Leu5]enkephalin from delta opioid receptor in guinea pig brain membranes after 40 mins. It is filed as cell membranes, Cavia porcellus, Membrane.
Test [4] addresses T1, Kappa-type opioid receptor (Cavia porcellus, UniProt P41144). As to the kind of experiment: Displacement of [3H]-Ethylketazocine from kappa opioid receptor in guinea pig brain membranes after 40 mins. It is filed as cell membranes, Membrane.
The target of test [5] is Kappa-type opioid receptor (Homo sapiens, UniProt P41145). As to the kind of experiment: Binding affinity to kappa opioid receptor (unknown origin).
The target in test [6] is Delta-type opioid receptor (Homo sapiens, UniProt P41143). As to the kind of experiment: Binding affinity to delta opioid receptor (unknown origin).
The subject of test [7] is Mus musculus. As to the kind of experiment: Antinociceptive activity in CD-1 mouse mechanical stimulus-induced nociception model assessed as struggle response latency at 0.125 to 0.5 mg/kg, sc administered 30 mins prior to test by paw pressure test. The format is functional, organism-based.
Test [8] deals with Mus musculus. As to the kind of experiment: Antinociceptive activity in CD-1 mouse mechanical stimulus-induced nociception model assessed as struggle response latency at 0.25 mg/kg, sc administered 30 mins prior to test in presence of centrally penetrant opioid antagonist Nx by paw pressure test. The format is functional, organism-based.
Test [9] relates to Mus musculus. As to the kind of experiment: Antinociceptive activity in CD-1 mouse mechanical stimulus-induced nociception model assessed as struggle response latency at 0.25 mg/kg, sc administered 30 mins prior to test in presence of peripherally restricted opioid antagonist Nx-M by paw pressure test. It is filed as functional, organism-based.
Test [10] concerns Mus musculus. As to the kind of experiment: Antinociceptive activity in CD-1 mouse mechanical stimulus-induced nociception model assessed as struggle response latency at 0.25 mg/kg, sc administered 30 mins prior to test in presence of sigma1 receptor agonist PRE-084 by paw pressure test. It is filed as functional, organism-based.
Test [11] has as its system Mus musculus. The test is described as follows: Antinociceptive activity in CD-1 mouse mechanical stimulus-induced nociception model assessed as struggle response latency time at 0.5 mg/kg, sc administered 30 mins prior to test by paw pressure test. It is filed as functional.
Test [12] relates to Mus musculus. As to the kind of experiment: Antinociceptive activity in CD-1 mouse mechanical stimulus-induced nociception model assessed as struggle response latency time at 0.5 mg/kg, sc administered 30 mins prior to test in presence of centrally penetrant opioid antagonist Nx by paw pressure test. The format is functional, organism-based.
Test [13] concerns the target Mu-type opioid receptor (Rattus norvegicus, UniProt P33535). As to the kind of experiment: Displacement of [3H] DAMGO from mu opioid receptor in Sprague-Dawley rat whole brain membranes after 2.5 hrs by liquid scintillation method. Also noted: species or system Membrane.
The test system of test [14] is Mus musculus. As to the kind of experiment: Antinociceptive activity in CD-1 mouse mechanical stimulus-induced nociception model assessed as struggle response latency time at 0.5 mg/kg, sc administered 30 mins prior to test in presence of peripherally restricted opioid antagonist Nx-M by paw pressure test. It is filed as functional, organism-based.
Test [15] relates to Mus musculus. As to the kind of experiment: Antinociceptive activity in CD-1 mouse mechanical stimulus-induced nociception model assessed as struggle response latency time at 0.5 mg/kg, sc administered 30 mins prior to test in presence of sigma1 receptor agonist PRE-084 by paw pressure test. The format is functional, organism-based.
In test [16] the test system is Mus musculus. The test is described as follows: Analgesic activity in mouse administered subcutaneously by hot plate assay. The following applies: sc.
The subject of test [17] is Mus musculus. As to the kind of experiment: Antinociceptive activity in sc dosed CD-1 mouse mechanical stimulus-induced nociception model assessed as struggle response latency administered 30 mins prior to test by paw pressure test. The format is functional, organism-based.
The subject of test [18] is Mus musculus. The test is described as follows: Antinociceptive activity in CD-1 mouse mechanical stimulus-induced nociception model assessed as struggle response latency at 8 mg/kg, sc administered 30 mins prior to test in presence of centrally penetrant opioid antagonist Nx by paw pressure test. It is filed as functional, organism-based.
Test [19] concerns Mus musculus. The test is described as follows: Antinociceptive activity in CD-1 mouse mechanical stimulus-induced nociception model assessed as struggle response latency at 8 mg/kg, sc administered 30 mins prior to test in presence of peripherally restricted opioid antagonist Nx-M by paw pressure test. The format is functional, organism-based.
Test [20] deals with Mus musculus. The test is described as follows: Antinociceptive activity in CD-1 mouse mechanical stimulus-induced nociception model assessed as struggle response latency at 8 mg/kg, sc administered 30 mins prior to test in presence of sigma1 receptor agonist PRE-084 by paw pressure test. The format is functional, organism-based.
Test [21] has as its target Delta-type opioid receptor (Rattus norvegicus, UniProt P33533). The test is described as follows: Displacement of [3H]DPDPE from delta opioid receptor in Sprague-Dawley rat brain membranes by liquid scintillation counter method. The format is cell membranes, Membrane.
The target in test [22] is T1, Kappa-type opioid receptor. The test is described as follows: Displacement of [3H]U69,593 from kappa opioid receptor in guinea pig brain membranes by liquid scintillation counter method. It is filed as cell membranes, Membrane.
In test [23] the test system is Mus musculus. The test is described as follows: Antinociceptive activity in CD-1 mouse mechanical stimulus-induced nociception model assessed as struggle response latency at 4 mg/kg, sc administered 30 mins prior to test in presence of centrally penetrant opioid antagonist Nx by paw pressure test. It is filed as functional, organism-based.
In test [24] the test system is Mus musculus. The test is described as follows: Antinociceptive activity in CD-1 mouse mechanical stimulus-induced nociception model assessed as struggle response latency at 4 mg/kg, sc administered 30 mins prior to test in presence of peripherally restricted opioid antagonist Nx-M by paw pressure test. It is filed as functional, organism-based.
Test [25] deals with Mus musculus. As to the kind of experiment: Antinociceptive activity in CD-1 mouse mechanical stimulus-induced nociception model assessed as struggle response latency at 4 mg/kg, sc administered 30 mins prior to test in presence of sigma1 receptor agonist PRE-084 by paw pressure test. It is filed as functional, organism-based.
Test [26] has as its system Mus musculus. As to the kind of experiment: Antinociceptive activity in CD-1 mouse mechanical stimulus-induced nociception model assessed as struggle response latency at 2 to 8 mg/kg, sc administered 30 mins prior to test by paw pressure test. The format is functional, organism-based.

The values below come from ChEMBL document CHEMBL4000164, “(+)-and (-)-Phenazocine enantiomers: Evaluation of their dual opioid agonist/σ1 antagonist properties and antinociceptive effects” (Eur J Med Chem, 2017).

The source made the active and inactive calls. The calls are words filed in the database; no cut-off is given here.

Mu-type opioid receptor (Rattus norvegicus, UniProt P33535), sequence (P33535 whole entry): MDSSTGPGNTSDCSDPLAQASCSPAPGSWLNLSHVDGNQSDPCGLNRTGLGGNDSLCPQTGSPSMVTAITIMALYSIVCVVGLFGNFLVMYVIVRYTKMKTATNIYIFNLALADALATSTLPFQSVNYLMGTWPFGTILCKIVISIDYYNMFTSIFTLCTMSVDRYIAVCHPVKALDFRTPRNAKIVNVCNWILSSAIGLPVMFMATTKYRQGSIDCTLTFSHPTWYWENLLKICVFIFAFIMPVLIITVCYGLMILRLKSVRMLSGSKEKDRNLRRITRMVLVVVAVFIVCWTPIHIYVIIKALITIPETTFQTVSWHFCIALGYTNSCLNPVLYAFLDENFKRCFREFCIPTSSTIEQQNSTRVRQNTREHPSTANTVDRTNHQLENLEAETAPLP
T1 sequence (P41144 whole entry): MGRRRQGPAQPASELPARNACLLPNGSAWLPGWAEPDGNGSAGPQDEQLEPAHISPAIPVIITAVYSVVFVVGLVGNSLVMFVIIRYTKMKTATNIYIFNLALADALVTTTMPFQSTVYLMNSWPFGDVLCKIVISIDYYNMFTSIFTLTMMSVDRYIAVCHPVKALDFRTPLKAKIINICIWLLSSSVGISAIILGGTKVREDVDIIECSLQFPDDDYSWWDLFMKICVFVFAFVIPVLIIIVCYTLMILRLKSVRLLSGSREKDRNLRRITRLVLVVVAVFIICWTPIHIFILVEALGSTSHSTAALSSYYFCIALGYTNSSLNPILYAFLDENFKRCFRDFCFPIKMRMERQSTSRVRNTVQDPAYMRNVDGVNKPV
Mu-type opioid receptor (Cavia porcellus, UniProt P97266), sequence (P97266 whole entry): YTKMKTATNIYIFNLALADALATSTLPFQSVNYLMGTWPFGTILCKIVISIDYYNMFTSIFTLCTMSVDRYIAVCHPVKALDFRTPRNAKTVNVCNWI
Sigma non-opioid intracellular receptor 1, sequence (O55242 whole entry): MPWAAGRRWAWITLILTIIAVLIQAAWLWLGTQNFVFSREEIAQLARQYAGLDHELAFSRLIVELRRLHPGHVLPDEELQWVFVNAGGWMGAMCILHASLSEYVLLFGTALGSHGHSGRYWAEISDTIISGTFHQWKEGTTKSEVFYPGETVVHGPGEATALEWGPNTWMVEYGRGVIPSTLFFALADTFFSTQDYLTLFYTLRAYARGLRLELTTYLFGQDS
Kappa-type opioid receptor (Homo sapiens, UniProt P41145), sequence (P41145 whole entry): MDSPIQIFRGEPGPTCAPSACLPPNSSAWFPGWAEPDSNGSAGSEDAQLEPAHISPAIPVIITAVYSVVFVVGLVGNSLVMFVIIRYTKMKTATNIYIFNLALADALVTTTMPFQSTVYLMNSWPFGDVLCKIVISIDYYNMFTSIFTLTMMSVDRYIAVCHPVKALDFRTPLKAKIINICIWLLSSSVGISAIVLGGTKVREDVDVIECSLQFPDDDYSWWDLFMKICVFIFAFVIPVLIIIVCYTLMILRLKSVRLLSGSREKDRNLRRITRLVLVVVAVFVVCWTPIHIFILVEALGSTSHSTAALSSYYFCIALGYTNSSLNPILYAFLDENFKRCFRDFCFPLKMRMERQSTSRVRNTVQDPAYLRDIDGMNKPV
Delta-type opioid receptor (Rattus norvegicus, UniProt P33533), sequence (P33533 whole entry): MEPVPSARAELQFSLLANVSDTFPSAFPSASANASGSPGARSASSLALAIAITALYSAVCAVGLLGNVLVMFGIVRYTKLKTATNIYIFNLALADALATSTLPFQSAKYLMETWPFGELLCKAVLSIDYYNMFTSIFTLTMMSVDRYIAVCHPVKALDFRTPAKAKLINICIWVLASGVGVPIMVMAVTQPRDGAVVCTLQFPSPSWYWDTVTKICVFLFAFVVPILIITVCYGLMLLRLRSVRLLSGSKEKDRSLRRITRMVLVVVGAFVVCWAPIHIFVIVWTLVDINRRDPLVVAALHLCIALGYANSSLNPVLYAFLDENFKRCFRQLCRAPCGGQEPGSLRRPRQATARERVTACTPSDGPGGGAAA
Delta-type opioid receptor (Homo sapiens, UniProt P41143), sequence (P41143 whole entry): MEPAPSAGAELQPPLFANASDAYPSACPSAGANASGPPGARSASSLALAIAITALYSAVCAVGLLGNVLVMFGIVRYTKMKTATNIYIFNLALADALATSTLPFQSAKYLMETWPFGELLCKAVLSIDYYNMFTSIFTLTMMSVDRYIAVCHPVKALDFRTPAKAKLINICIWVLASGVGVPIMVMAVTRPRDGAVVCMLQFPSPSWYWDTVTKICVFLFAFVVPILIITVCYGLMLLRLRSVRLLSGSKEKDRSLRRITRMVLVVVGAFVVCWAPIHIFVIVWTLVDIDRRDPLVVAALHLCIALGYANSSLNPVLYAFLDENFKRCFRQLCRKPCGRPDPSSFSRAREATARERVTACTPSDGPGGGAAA

In the case of `C=CC[N+]1(C)CC[C@]23c4c5ccc(O)c4O[C@H]2C(=O)CC[C@@]3(O)[C@H]1C5` (some centres not stated) [NALOXONE METHIODIDE], the Ki was > 1000 nM in test [1], 18.2 nM on Mu-type opioid receptor [2], 291 nM in test [3] and 187 nM in [4].
Regarding `O=C(OCCN1CCOCC1)C1(c2ccccc2)CCCCC1`, the Ki in test [5] and in test [6] was > 4000 nM each time.
Regarding `C[C@H]1[C@H]2Cc3ccc(O)cc3[C@]1(C)CCN2CCc1ccccc1`, in the test on Mus musculus [7], the outcome was Active. For the same compound, the outcome with Mus musculus [8], with Mus musculus [9], in the test with Mus musculus [10], in the test on Mus musculus [12], in the test on Mus musculus [14] and in the test with Mus musculus [15] was inactive. In addition, the Time with Mus musculus [11] was determined as 20 s. Further, at Mu-type opioid receptor [13], the Ki came to 61.7 nM.
Turning to `CN1CC[C@]23c4c5ccc(O)c4O[C@H]2[C@@H](O)C=C[C@H]3[C@H]1C5` [MORPHINE], the ED50 in the test on Mus musculus [16] is 6.7 mg/kg. Further, the Activity result in the test on Mus musculus [17] is “Dose-dependent effect”. Moreover, the outcome with Mus musculus [18] was inactive. The outcome in the test with Mus musculus [19] and with Mus musculus [20] was Active.
`C[C@@H]1[C@@H]2Cc3ccc(O)cc3[C@@]1(C)CCN2CCc1ccccc1`: the Ki came out at 123 nM in test [21], 175 nM in test [22] and 3.9 nM at Mu-type opioid receptor [13]. In addition, the result in the test on Mus musculus [23], with Mus musculus [24] and in the test on Mus musculus [25] was inactive. In addition, the outcome in the test with Mus musculus [26] was Active.
